Data on 11 compounds can be found in patent US9598423B2 (BRISTOL-MYERS SQUIBB COMPANY, priority 2013, dated 2017).

For test [1], the target named is CK1δ (Homo sapiens (Human), UniProt P48730). The experiment in a line: CK1δ kinase assay (Caliper LABCHIP electrophoretic separation of fluoresceinated peptide substrate and product). Format: biochemical. The note with it: 200 pM CK1δ, 50 μM ATP, 1.5 μM peptide substrate, 22 hours at room temperature; read-out: CK1δ (IC50). The procedure, abridged:
(§1)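 Compounds, taken from 10 mM DMSO stocks, are titrated at eleven concentrations. Kinase reactions proceed for 22 hours at room temperature and are quenched with EDTA. Substrate and product are resolved electrophoretically, and IC50 values are fitted by non-linear regression.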

In test [2] the target is CK1ε (Homo sapiens (Human), UniProt P49674). The experiment in a line: CK1ε kinase assay (Caliper LABCHIP electrophoretic separation of fluoresceinated peptide substrate and product). In kind it is biochemical. Conditions: read-out: CK1ε (IC50). The procedure, abridged:
as §1

Where [3] appears, read: 200 pM CK1ε, 50 μM ATP, 1.5 μM peptide substrate, 22 hours at room temperature.

Read-outs that look alike come from different tables or passages of the source.

Sequence of CK1ε (P49674 whole entry): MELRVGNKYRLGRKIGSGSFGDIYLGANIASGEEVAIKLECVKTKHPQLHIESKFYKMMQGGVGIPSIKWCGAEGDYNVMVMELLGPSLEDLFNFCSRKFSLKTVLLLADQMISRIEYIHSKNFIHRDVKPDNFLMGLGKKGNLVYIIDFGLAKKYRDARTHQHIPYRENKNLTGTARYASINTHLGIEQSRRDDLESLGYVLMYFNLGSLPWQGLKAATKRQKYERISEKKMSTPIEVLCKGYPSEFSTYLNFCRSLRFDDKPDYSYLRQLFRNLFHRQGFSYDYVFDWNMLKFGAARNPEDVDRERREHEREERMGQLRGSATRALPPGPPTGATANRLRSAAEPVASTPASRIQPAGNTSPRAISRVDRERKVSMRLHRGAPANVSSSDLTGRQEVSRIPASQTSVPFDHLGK
Sequence of CK1δ (P48730 whole entry): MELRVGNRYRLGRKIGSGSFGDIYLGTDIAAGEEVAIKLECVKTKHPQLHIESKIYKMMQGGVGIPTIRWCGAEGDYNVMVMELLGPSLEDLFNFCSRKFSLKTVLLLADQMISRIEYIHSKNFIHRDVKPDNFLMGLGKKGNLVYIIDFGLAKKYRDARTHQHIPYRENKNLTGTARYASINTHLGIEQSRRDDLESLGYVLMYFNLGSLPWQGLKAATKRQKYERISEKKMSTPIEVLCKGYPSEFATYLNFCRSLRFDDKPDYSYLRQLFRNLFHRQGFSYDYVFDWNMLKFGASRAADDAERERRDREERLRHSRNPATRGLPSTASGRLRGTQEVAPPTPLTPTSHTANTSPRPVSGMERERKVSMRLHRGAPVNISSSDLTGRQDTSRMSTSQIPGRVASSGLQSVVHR

What is called IC50 is the concentration that inhibits the measured activity by half. For `N#Cc1ccc(NC(=O)N2CCn3nc(-c4cnc(Cl)c(Cl)c4)c(C(N)=O)c3C2)cc1` [Compound 297, N^5-(4-Cyanophenyl)-2-(5,6-dichloropyridin-3-yl)-6,7-dihydropyrazolo[1,5-a]pyrazine-3,5(4H)-dicarboxamide], the concentration for half-maximal inhibition (IC50) in test [1] and in test [2] (setting [3]) was 0.01 to 10 nM in each case.

`NC(=O)c1c(-c2ccc(F)c(F)c2)nn2c1CN(C(=O)Nc1ccc3c(c1)CS(=O)(=O)C3)CC2` [Compound 234, 2-(3,4-Difluorophenyl)-N^5-(2,2-dioxido-1,3-dihydrobenzo[c]thiophen-5-yl)-6,7-dihydropyrazolo [1,5-a]pyrazine-3,5(4H)-dicarboxamide]: the IC50 in test [1] and in test [2] (setting [3]) was 0.01 to 10 nM in each case.

Consider `NC(=O)c1c(-c2cccc(Cl)c2)nn2c1CN(C(=O)Nc1ccc(F)cc1)CC2` [Compound 157, 2-(3-Chlorophenyl)-N^5-(4-fluorophenyl)-6,7-dihydropyrazolo[1,5-a]pyrazine-3,5(4H)-dicarboxamide], for which the 50% inhibitory concentration (IC50) in test [1] and in test [2] (setting [3]) was 0.01 to 10 nM each time.

On to `NC(=O)c1c(-c2cccc(Cl)c2)nn2c1CN(C(=O)Nc1ccc(Cl)nc1)CC2` [Compound 171, 2-(3-Chlorophenyl)-N^5-(6-chloropyridin-3-yl)-6,7-dihydropyrazolo[1,5-a] pyrazine-3,5(4H)-dicarboxamide], for which the IC50 in test [1] and in test [2] (setting [3]) was 0.01 to 10 nM throughout.

For the compound `NC(=O)c1c(-c2cccc(Cl)c2)nn2c1CN(C(=O)Nc1ccc(Cl)c(Cl)c1)CC2` [Compound 164, 2-(3-Chlorophenyl)-N^5-(3,4-dichlorophenyl)-6,7-dihydropyrazolo[1,5-a] pyrazine-3,5(4H)-dicarboxamide], the IC50 in test [1] and in test [2] (setting [3]) was 0.01 to 10 nM in each case.

As for `Cc1nc2cc(-c3nn4c(c3C(N)=O)CN(C(=O)Nc3ccc(C#N)c(C)c3)CC4)cc(Cl)c2o1` [Compound 313, 2-(7-Chloro-2-methylbenzo[d]oxazol-5-yl)-N^5-(4-cyano-3-methylphenyl)-6,7-dihydropyrazolo[1,5-a]pyrazine-3,5(4H)-dicarboxamide], the IC50 in test [1] and in test [2] (setting [3]) was 0.01 to 10 nM each time.

Take `N#Cc1ccc(NC(=O)N2Cc3c(C(N)=O)c(-c4ccc(Cl)c(Cl)c4)nn3[C@H]3COC[C@H]32)cc1` [Compound 349, (5aS,8aR)-N^5-(4-Cyanophenyl)-2-(3,4-dichlorophenyl)-5a,6,8,8a-tetrahydrofuro[3,4-e]pyrazolo[1,5-a]pyrazine-3,5(4H)-dicarboxamide]: the half-inhibitory concentration (IC50) in test [1] and in test [2] (setting [3]) was 0.01 to 10 nM throughout.

With `NC(=O)c1c(-c2cccc(F)c2)nn2c1CN(C(=O)Nc1cccc(C(F)(F)F)c1)CC2` [Compound 50, 2-(3-Fluorophenyl)-N^5-(3-(trifluoromethyl)phenyl)-6,7-dihydropyrazolo[1,5-a]pyrazine-3,5(4H)-dicarboxamide], the IC50 in test [1] and in test [2] (setting [3]) was 0.01 to 10 nM in each case.

Consider `CC(C)(C)c1ccc(NC(=O)N2CCn3nc(-c4cccc(F)c4)c(C(N)=O)c3C2)cc1` [Compound 63, N^5-(4-(tert-Butyl)phenyl)-2-(3-fluorophenyl)-6,7-dihydropyrazolo[1,5-a]pyrazine-3,5(4H)-dicarboxamide], for which the IC50 in test [1] and in test [2] (setting [3]) was 0.01 to 10 nM throughout.

For `Cc1ccc(-c2nn3c(c2C(N)=O)CN(C(=O)Nc2ccc(C#N)c(C(F)(F)F)c2)CC3)cc1Cl` [Compound 253, 2-(3-Chloro-4-methylphenyl)-N^5-(4-cyano-3-(trifluoro-methyl)phenyl)-6,7-dihydropyrazolo [1,5-a]pyrazine-3,5(4H)-dicarboxamide], the IC50 in test [1] and in test [2] was 0.01 to 10 nM throughout.

In the case of `N#Cc1ccc(NC(=O)N2CCn3nc(-c4ccc(F)c(Cl)c4)c(C(N)=O)c3C2)cc1C(F)(F)F` [Compound 204, 2-(3-Chloro-4-fluorophenyl)-N^5-(4-cyano-3-(trifluoromethyl)phenyl)-6,7-dihydropyrazolo[1,5-a] pyrazine-3,5(4H)-dicarboxamide], the IC50 in test [1] and in test [2] (setting [3]) was 0.01 to 10 nM each time.
